Test results published in ChEMBL document CHEMBL3885881, “DrugMatrix”.

Organism: Rattus norvegicus
Assay: DrugMatrix - Regimen: Daily Repeat
Type: toxicity, organism-based, Sprague-Dawley
Parameters: regimen Daily Repeat, gender Male, age 6-8 weeks
Conditions: in vivo, po, route oral GAVAGE, vehicle .5 % CMC; for ABSOLUTE BASOPHIL / ABSOLUTE EOSINOPHIL / ABSOLUTE LYMPHOCYTE / ABSOLUTE MONOCYTE / ABSOLUTE SEGMENTED NEUTROPHIL / BASOPHIL / EOSINOPHIL / ERYTHROCYTE COUNT / HEMATOCRIT / HEMOGLOBIN / LEUKOCYTE COUNT / LYMPHOCYTE / MEAN CORPUSCULAR HEMOGLOBIN / MEAN CORPUSCULAR HEMOGLOBIN CONCENTRATION / MEAN CORPUSCULAR VOLUME / MONOCYTE / NEUTROPHIL / NUCLEATED RED BLOOD CELLS / PLATELET COUNT: tissue Blood; for ALANINE AMINOTRANSFERASE / ALBUMIN / ALKALINE PHOSPHATASE / ASPARTATE AMINOTRANSFERASE / BLOOD UREA NITROGEN / CARBON DIOXIDE / CHLORIDE / CHOLESTEROL / CREATINE PHOSPHOKINASE / CREATININE / GLUCOSE / LACTATE DEHYDROGENASE / LIPASE / PHOSPHORUS / POTASSIUM / SODIUM / TOTAL BILIRUBIN / TOTAL PROTEIN / URIC ACID: tissue Plasma
[1] = 25 mg/kg, 72 h, dose level Low, time 3 day
[2] = 25 mg/kg, 120 h, dose level Low, time 5 day
[3] = 300 mg/kg, 72 h, dose level High, time 3 day
[4] = 300 mg/kg, 120 h, dose level High, time 5 day

SMILES: CC(=O)S[C@@H]1CC2=CC(=O)CC[C@]2(C)[C@H]2CC[C@@]3(C)[C@@H](CC[C@@]34CCC(=O)O4)[C@H]12 [SPIRONOLACTONE]
- ABSOLUTE BASOPHIL [1]: 0 CELLS/uL
- ABSOLUTE EOSINOPHIL [1]: 0 CELLS/uL
- ABSOLUTE LYMPHOCYTE [1]: 11038 CELLS/uL
- ABSOLUTE MONOCYTE [1]: 168 CELLS/uL
- ABSOLUTE SEGMENTED NEUTROPHIL [1]: 694 CELLS/uL
- BASOPHIL [1]: 0%
- EOSINOPHIL [1]: 0%
- ERYTHROCYTE COUNT [1]: 5.44 x10E6/uL
- HEMATOCRIT [1]: 34.63%
- HEMOGLOBIN [1]: 13.87 G/DL
- LEUKOCYTE COUNT [1]: 11.9 x10E3/uL
- LYMPHOCYTE [1]: 92.67%
- MEAN CORPUSCULAR HEMOGLOBIN [1]: 25.53 pg
- MEAN CORPUSCULAR HEMOGLOBIN CONCENTRATION [1]: 40.03 G/DL
- MEAN CORPUSCULAR VOLUME [1]: 63.7 fL
- MONOCYTE [1]: 1.33%
- NEUTROPHIL [1]: 6%
- NUCLEATED RED BLOOD CELLS [1]: 0.67 /100WBC
- PLATELET COUNT [1]: 1277 x10E3/uL
- ALANINE AMINOTRANSFERASE [1]: 45.67 u/L
- ALBUMIN [1]: 4.3 G/DL
- ALKALINE PHOSPHATASE [1]: 295 u/L
- ASPARTATE AMINOTRANSFERASE [1]: 77.33 u/L
- BLOOD UREA NITROGEN [1]: 15.33 mg/dL
- CARBON DIOXIDE [1]: 28 mmol/L
- CHLORIDE [1]: 101.33 MEQ/L
- CHOLESTEROL [1]: 76.33 mg/dL
- CREATINE PHOSPHOKINASE [1]: 188.33 u/L
- CREATININE [1]: 0.21 mg/dL
- GLUCOSE [1]: 169.33 mg/dL
- LACTATE DEHYDROGENASE [1]: 202.67 u/L
- LIPASE [1]: 9.67 u/L
- PHOSPHORUS [1]: 12.5 mg/dL
- POTASSIUM [1]: 6.74 MEQ/L
- SODIUM [1]: 146.03 MEQ/L
- TOTAL BILIRUBIN [1]: 0.2 mg/dL
- TOTAL PROTEIN [1]: 5.83 G/DL
- URIC ACID [1]: 1.8 mg/dL
- ABSOLUTE BASOPHIL [2]: 0 CELLS/uL
- ABSOLUTE EOSINOPHIL [2]: 0 CELLS/uL
- ABSOLUTE LYMPHOCYTE [2]: 13033 CELLS/uL
- ABSOLUTE MONOCYTE [2]: 85.33 CELLS/uL
- ABSOLUTE SEGMENTED NEUTROPHIL [2]: 1115 CELLS/uL
- BASOPHIL [2]: 0%
- EOSINOPHIL [2]: 0%
- ERYTHROCYTE COUNT [2]: 5.6 x10E6/uL
- HEMATOCRIT [2]: 34.4%
- HEMOGLOBIN [2]: 13.67 G/DL
- LEUKOCYTE COUNT [2]: 14.23 x10E3/uL
- LYMPHOCYTE [2]: 91.33%
- MEAN CORPUSCULAR HEMOGLOBIN [2]: 24.47 pg
- MEAN CORPUSCULAR HEMOGLOBIN CONCENTRATION [2]: 39.73 G/DL
- MEAN CORPUSCULAR VOLUME [2]: 61.5 fL
- MONOCYTE [2]: 0.67%
- NEUTROPHIL [2]: 8%
- NUCLEATED RED BLOOD CELLS [2]: 0 /100WBC
- PLATELET COUNT [2]: 1372 x10E3/uL
- ALANINE AMINOTRANSFERASE [2]: 48.67 u/L
- ALBUMIN [2]: 4.3 G/DL
- ALKALINE PHOSPHATASE [2]: 354.67 u/L
- ASPARTATE AMINOTRANSFERASE [2]: 81 u/L
- BLOOD UREA NITROGEN [2]: 19 mg/dL
- CARBON DIOXIDE [2]: 25.67 mmol/L
- CHLORIDE [2]: 103.33 MEQ/L
- CHOLESTEROL [2]: 60.33 mg/dL
- CREATINE PHOSPHOKINASE [2]: 259.33 u/L
- CREATININE [2]: 0.2 mg/dL
- GLUCOSE [2]: 164.33 mg/dL
- LACTATE DEHYDROGENASE [2]: 139 u/L
- LIPASE [2]: 9.67 u/L
- PHOSPHORUS [2]: 12.23 mg/dL
- POTASSIUM [2]: 6.24 MEQ/L
- SODIUM [2]: 148.03 MEQ/L
- TOTAL BILIRUBIN [2]: 0.23 mg/dL
- TOTAL PROTEIN [2]: 6.27 G/DL
- URIC ACID [2]: 1.93 mg/dL
- ABSOLUTE BASOPHIL [3]: 0 CELLS/uL
- ABSOLUTE EOSINOPHIL [3]: 0 CELLS/uL
- ABSOLUTE LYMPHOCYTE [3]: 10747 CELLS/uL
- ABSOLUTE MONOCYTE [3]: 38 CELLS/uL
- ABSOLUTE SEGMENTED NEUTROPHIL [3]: 481.67 CELLS/uL
- BASOPHIL [3]: 0%
- EOSINOPHIL [3]: 0%
- ERYTHROCYTE COUNT [3]: 5.83 x10E6/uL
- HEMATOCRIT [3]: 37.33%
- HEMOGLOBIN [3]: 14.97 G/DL
- LEUKOCYTE COUNT [3]: 11.27 x10E3/uL
- LYMPHOCYTE [3]: 95.33%
- MEAN CORPUSCULAR HEMOGLOBIN [3]: 25.67 pg
- MEAN CORPUSCULAR HEMOGLOBIN CONCENTRATION [3]: 40.07 G/DL
- MEAN CORPUSCULAR VOLUME [3]: 64.03 fL
- MONOCYTE [3]: 0.33%
- NEUTROPHIL [3]: 4.33%
- NUCLEATED RED BLOOD CELLS [3]: 0 /100WBC
- PLATELET COUNT [3]: 1193 x10E3/uL
- ALANINE AMINOTRANSFERASE [3]: 95 u/L
- ALBUMIN [3]: 4.27 G/DL
- ALKALINE PHOSPHATASE [3]: 425.67 u/L
- ASPARTATE AMINOTRANSFERASE [3]: 757 u/L
- BLOOD UREA NITROGEN [3]: 16.67 mg/dL
- CARBON DIOXIDE [3]: 22.67 mmol/L
- CHLORIDE [3]: 101.33 MEQ/L
- CHOLESTEROL [3]: 65.67 mg/dL
- CREATINE PHOSPHOKINASE [3]: 5158.67 u/L
- CREATININE [3]: 0.2 mg/dL
- GLUCOSE [3]: 152.67 mg/dL
- LACTATE DEHYDROGENASE [3]: 2756 u/L
- LIPASE [3]: 11 u/L
- PHOSPHORUS [3]: 12.67 mg/dL
- POTASSIUM [3]: 9.65 MEQ/L
- SODIUM [3]: 142.53 MEQ/L
- TOTAL BILIRUBIN [3]: 0.3 mg/dL
- TOTAL PROTEIN [3]: 6.07 G/DL
- URIC ACID [3]: 3.73 mg/dL
- ABSOLUTE BASOPHIL [4]: 0 CELLS/uL
- ABSOLUTE EOSINOPHIL [4]: 55.67 CELLS/uL
- ABSOLUTE LYMPHOCYTE [4]: 15788 CELLS/uL
- ABSOLUTE MONOCYTE [4]: 55.67 CELLS/uL
- ABSOLUTE SEGMENTED NEUTROPHIL [4]: 1134 CELLS/uL
- BASOPHIL [4]: 0%
- EOSINOPHIL [4]: 0.33%
- ERYTHROCYTE COUNT [4]: 5.9 x10E6/uL
- HEMATOCRIT [4]: 35.17%
- HEMOGLOBIN [4]: 14.23 G/DL
- LEUKOCYTE COUNT [4]: 17.03 x10E3/uL
- LYMPHOCYTE [4]: 92.67%
- MEAN CORPUSCULAR HEMOGLOBIN [4]: 24.17 pg
- MEAN CORPUSCULAR HEMOGLOBIN CONCENTRATION [4]: 40.47 G/DL
- MEAN CORPUSCULAR VOLUME [4]: 59.6 fL
- MONOCYTE [4]: 0.33%
- NEUTROPHIL [4]: 6.67%
- NUCLEATED RED BLOOD CELLS [4]: 0 /100WBC
- PLATELET COUNT [4]: 1586.67 x10E3/uL
- ALANINE AMINOTRANSFERASE [4]: 70.33 u/L
- ALBUMIN [4]: 4.23 G/DL
- ALKALINE PHOSPHATASE [4]: 327.33 u/L
- ASPARTATE AMINOTRANSFERASE [4]: 72.33 u/L
- BLOOD UREA NITROGEN [4]: 17.33 mg/dL
- CARBON DIOXIDE [4]: 27.33 mmol/L
- CHLORIDE [4]: 101.33 MEQ/L
- CHOLESTEROL [4]: 60.67 mg/dL
- CREATINE PHOSPHOKINASE [4]: 189.67 u/L
- CREATININE [4]: 0.21 mg/dL
- GLUCOSE [4]: 158.33 mg/dL
- LACTATE DEHYDROGENASE [4]: 134.33 u/L
- LIPASE [4]: 10.33 u/L
- PHOSPHORUS [4]: 11.07 mg/dL
- POTASSIUM [4]: 6.24 MEQ/L
- SODIUM [4]: 145.57 MEQ/L
- TOTAL BILIRUBIN [4]: 0.2 mg/dL
- TOTAL PROTEIN [4]: 6.17 G/DL
- URIC ACID [4]: 2 mg/dL
